Laboratory results reported in patent publication US8338441B2, “Inhibitors of human immunodeficiency virus replication” (priority 2009, dated 2012).

These molecules were tested on HIV-1 NL4.3 strain (assay: C8166 HIV-1 Luciferase Assay (EC50)). Conditions: Human immunodeficiency virus 1, C8166, 72 h, read-out: Antiviral potency EC50.
Assay type: cell-based
Source text: C8166 HIV-1 Luciferase Assay (EC50)
C8166 cells are derived from a human T-lymphotrophic virus type 1 immortalized but nonexpressing line of cord blood lymphocytes (obtained from J. Sullivan and originally produced in the laboratory of R. Gallo, Virology 1983; 129: 51-64) and are highly permissive to HIV-1 infection. The pGL3 Basic LTR/TAR plasmid is made by introducing the HIV-1 HxB2 LTR sequence from nucleotide −138 to +80 (Sca1-HindIII) upstream of the luciferase gene in the pGL3 Basic Vector (a promoterless luciferase expression vector from Promega catalogue # E1751) with the gene for blasticidine resistance cloned in. The reporter cells are made by electroporating C8166 cells with pGL3 Basic LTR/TAR and selecting positive clones with blasticidine. Clone C8166-LTRIuc #A8-F5-G7 is selected by 3 consecutive rounds of limiting dilution under blasticidine selection. Cultures are maintained in complete media (consisting of: Roswell Park Memorial Institute medium (RPMI) 1640+10% FBS+10^−5 M β-mercaptoethanol+10 μg/ml gentamycin) with 5 μg/ml blasticidine, however, blasticidine selection is removed from the cells before performing the viral replication assay.
Luciferase Assay Protocol
Serial dilutions of HIV-1 inhibitor compounds are prepared in complete media from 10 mM DMSO stock solutions. Eleven serial dilutions of 2.5× are made at 8× desired final concentration in a 1 mL deep well titer plate (96 wells). The 12th well contains complete media with no inhibitor and serves as the positive control. All samples contain the same concentration of DMSO (≦0.1% DMSO). A 25 μL aliquot of inhibitor is added, to triplicate wells, of a 96 well tissue culture treated clear view black microtiter plate (Corning Costar catalogue # 3904). The total volume per well is 200 μL of media containing cells and inhibitor. The last row is reserved for uninfected C8166 LTRluc cells to serve as the background blank control and the first row is media alone.
C8166 LTRluc cells are counted and placed in a minimal volume of complete RPMI 1640 in a tissue culture flask (ex. 30×10^6 cells in 10 mL media/25 cm^2 flask). Cells are infected with HIV-1 or virus with variant integrase generated as described below at a […] (moi) of 0.005. Cells are incubated for 1.5 hours at 37° C. on a rotating rack in a 5% CO2 incubator and re-suspended in complete RPMI to give a final concentration of 25,000-cells/175 μL. 175 μL of cell mix is added to wells of a 96 well microtiter plate containing 25 μL 8× inhibitors. 25,000 uninfected C8166-LTRluc cells/well in 200 μL complete RPMI are added to the last row for background control. Cells are incubated at 37° C. in 5% CO2 incubator for 3 days.
50 μL Steady Glo (luciferase substrate T1/2=5 hours Promega catalogue # E2520) is added to each well of the 96 well plate. The relative light units (RLU) of luciferase is determined using the LUMIstar Galaxy luminometer (BMG LabTechnologies). Plates are read from the bottom for 2 seconds per well with a gain of 240.
The level of inhibition (% inhibition) of each well containing inhibitor is calculated as follows: […]
The calculated % inhibition values are used to determine EC50, slope factor (n) and maximum inhibition (Imax) by the non-linear regression routine NLIN procedure of SAS using the following equation: […]
In the case of `Cc1nc(-c2cccc(Br)c2)c(C)c(-c2ccc3c(c2)CCCO3)c1[C@H](OC(C)(C)C)C(=O)O` [compound 1005], the EC50 is reported as 19 nM.
`Cc1nc(-c2cccc(-c3cccnc3)c2)c(C)c(-c2ccc3c(c2)CCCO3)c1[C@H](OC(C)(C)C)C(=O)O` [compound 1009] was tested, and the EC50 was 20 nM.
Molecule `CCCn1cc(-c2cccc(-c3nc(C)c([C@H](OC(C)(C)C)C(=O)O)c(-c4ccc5c(c4)CCCO5)c3C)c2)cn1` [compound 1011] has an EC50 of 59 nM.
`Cc1nc(-c2cccc(-c3cncnc3)c2)c(C)c(-c2ccc3c(c2)CCCO3)c1[C@H](OC(C)(C)C)C(=O)O` [compound 1017] was tested, and the EC50 was 21 nM.
In the case of `Cc1n[nH]c(C)c1-c1cccc(-c2nc(C)c([C@H](OC(C)(C)C)C(=O)O)c(-c3ccc4c(c3)CCCO4)c2C)c1` [compound 1018], the EC50 is reported as 180 nM.
`Cc1nc(-c2cccc(-c3ccnnc3)c2)c(C)c(-c2ccc3c(c2)CCCO3)c1[C@H](OC(C)(C)C)C(=O)O` [compound 1020] showed an EC50 of 49 nM.
`Cc1nc(-c2ccc(-c3cncnc3)cc2)c(C)c(-c2ccc3c(c2C)CCCO3)c1[C@H](OC(C)(C)C)C(=O)O` [compound 1102] gave an EC50 of 17 nM.
`Cc1ccc(-c2nc(C)c([C@H](OC(C)(C)C)C(=O)O)c(-c3ccc(Cl)cc3)c2C)cc1C` [compound 1111] gave an EC50 of 15 nM.
For `Cc1ccc(-c2nc(C)c([C@H](OC(C)(C)C)C(=O)O)c(-c3ccc4c(c3C)NCCO4)c2C)cc1C` [compound 1113], the EC50 was 7.7 nM.
In the case of `Cc1ccc(-c2nc(C)c([C@H](OC(C)(C)C)C(=O)O)c(-c3ccc4c5c(ccnc35)CCO4)c2C)cc1C` [compound 1116], the EC50 is reported as 13 nM.
`Cc1nc(-c2cccc(-c3ccnn3C)c2)c(C)c(-c2ccc(Cl)cc2)c1[C@H](OC(C)(C)C)C(=O)O` [compound 1124] showed an EC50 of 81 nM.
Work on `Cc1nc(C(=O)N[C@H]2CC[C@H](C)CC2)c(C)c(-c2ccc3c(c2)CCCO3)c1[C@H](OC(C)(C)C)C(=O)O` [compound 1127] yielded an EC50 of 4.5 nM.
`Cc1nc(-c2ccc(OC(F)(F)F)cc2)c(C)c(-c2ccc(Cl)cc2)c1[C@H](OC(C)(C)C)C(=O)O` [compound 1132] was tested, and the EC50 was 9.4 nM.
With `Cc1nc(-c2ccc3scnc3c2)c(C)c(-c2ccc(Cl)cc2)c1[C@H](OC(C)(C)C)C(=O)O` [compound 1141] the EC50 was 26 nM.
`Cc1nc(C(=O)N[C@H]2CC[C@H](C)CC2)c(C)c(-c2ccc(Cl)cc2)c1[C@H](OC(C)(C)C)C(=O)O` [compound 1142] was tested, and the EC50 was 7.9 nM.
Work on `Cc1nc(C(=O)NC(C)(C)C)c(C)c(-c2ccc(Cl)cc2)c1[C@H](OC(C)(C)C)C(=O)O` [compound 1143] yielded an EC50 of 21 nM.
`Cc1nc(C(=O)NC2Cc3ccccc3C2)c(C)c(-c2ccc(Cl)cc2)c1[C@H](OC(C)(C)C)C(=O)O` [compound 1145] showed an EC50 of 35 nM.
Molecule `Cc1nc(C(=O)NCCc2ccccc2)c(C)c(-c2ccc(Cl)cc2)c1[C@H](OC(C)(C)C)C(=O)O` [compound 1146] has an EC50 of 17 nM.
`Cc1nc(C(=O)NC2CCCCCC2)c(C)c(-c2ccc(Cl)cc2)c1[C@H](OC(C)(C)C)C(=O)O` [compound 1147] was tested, and the EC50 was 6.9 nM.
`Cc1nc(C(=O)N[C@@H](C)C2CCCCC2)c(C)c(-c2ccc(Cl)cc2)c1[C@H](OC(C)(C)C)C(=O)O` [compound 1152] showed an EC50 of 15 nM.
Work on `Cc1nc(C(=O)NC(C)(C)c2ccccc2)c(C)c(-c2ccc(Cl)cc2)c1[C@H](OC(C)(C)C)C(=O)O` [compound 1154] yielded an EC50 of 27 nM.
Molecule `CC[C@@H](C)NC(=O)c1nc(C)c([C@H](OC(C)(C)C)C(=O)O)c(-c2ccc(Cl)cc2)c1C` [compound 1160] has an EC50 of 16 nM.
In the case of `Cc1nc(C(=O)NC2CCC(C(C)(C)C)CC2)c(C)c(-c2ccc(Cl)cc2)c1[C@H](OC(C)(C)C)C(=O)O` (some centres unmarked) [compound 1161], the EC50 is reported as 27 nM.
`Cc1ccc(NC(=O)c2nc(C)c([C@H](OC(C)(C)C)C(=O)O)c(-c3ccc(Cl)cc3)c2C)cc1` [compound 1167] showed an EC50 of 9.3 nM.
For `Cc1nc(C(=O)NC2CCCCCC2)c(C)c(-c2ccc3c(c2C)NCCO3)c1[C@H](OC(C)(C)C)C(=O)O` [compound 1192], the EC50 was 8.3 nM.
In the case of `Cc1nc(NC(=O)C(C)(C)C)c(C)c(-c2ccc(Cl)cc2)c1[C@H](OC(C)(C)C)C(=O)O` [compound 1202], the EC50 is reported as 31 nM.
